Source: patent US8008354B2, “Death receptor sensitizing compounds and methods of use therefor” (Burnham Institute for Medical Research, priority 2006, dated 2011)

Legend:
PPC-1 cells = assay: MTT viability of PPC-1 cells with extrinsic (CH-11, TRAIL) or intrinsic (VP-16, staurosporine) pathway stimuli; assay type: cell-based, human; details: CH-11, TRAIL versus VP-16, STS, MTT 24 hours
Procedure: FIG. 4. Small molecules selectively sensitize to extrinsic pathway stimuli. PPC-1 cells (1×10^4) were seeded overnight in 96 well plates. The next day, cells were treated with increasing concentrations of 6094911, 5809354, 5703229, or 5569100 in combination with increasing concentrations of CH-11 or TRAIL to activate the extrinsic pathway or with VP-16 or staurosporine to activate the intrinsic pathway. Cell viability was measured 24 hours later by MTT assay. Cell viability is expressed as a mean percentage of untreated cells+SD(n=3).
Statistics. Cytotoxicity induced by compounds used in combination with conventional agents (e.g., CH-11, TRAIL, VP-16 and staurosporine) was evaluated for evidence of synergy toxicity by comparing the slopes of the dose-response curves. […]
The 9 compounds identified using anti-FAS antibody screening theoretically could non-specifically sensitize tumor cells to apoptotic stimuli or they could be selective for the extrinsic pathway. […] Accordingly, PPC-1 cells were treated with various concentrations of compounds with or without CH-11, TRAIL, VP-16, or STS, and 24 hours later, cell viability was measured by MTT assays.

FLIP = details: previously shown (Kim et al., 2002); cited from earlier work

Row | Compound | sensitization to extrinsic versus intrinsic pathway stimuli (PPC-1 cells) | FLIP protein levels (FLIP)
1 | C[n+]1ccn2c3c(c4cc(C5CCCCC5)ccc42)CCCc31.[I-] [compound 5362611, 8-Cyclohexyl-3-methyl-5,6-dihydro-4H-pyrazino[3,2,1-jk]carbazol-3-ium; iodide] | sensitized to both the death receptor (extrinsic) and mitochondrial pathway (intrinsic) stimuli | 
2 | CC1(C)CC[C@]2(C(=O)O)CC[C@]3(C)[C@H](C(=O)C=C4[C@@]5(C)C=C(C#N)C(=O)C(C)(C)[C@@H]5CC[C@]43C)[C@@H]2C1 [CDDO, 2-cyano-3,12-dioxooleana-1,9-dien-28-oic acid] |  | reduce FLIP protein levels
